Drawing on PMC3081360 (Journal of medicinal chemistry, 2011), this text covers brain uptake for three molecules.

The target of this data set is brain NOP receptors (hypothalamus vs striatum) (Rattus norvegicus, UniProt P35370). Put plainly: Ligand brain uptake in rat, ex vivo LC-MS/MS. The settings on record: 3 μg/kg i.v., non-anesthetized, 10 min stated for (S)-10a.
brain NOP receptors (hypothalamus vs striatum), sequence (P35370 whole entry): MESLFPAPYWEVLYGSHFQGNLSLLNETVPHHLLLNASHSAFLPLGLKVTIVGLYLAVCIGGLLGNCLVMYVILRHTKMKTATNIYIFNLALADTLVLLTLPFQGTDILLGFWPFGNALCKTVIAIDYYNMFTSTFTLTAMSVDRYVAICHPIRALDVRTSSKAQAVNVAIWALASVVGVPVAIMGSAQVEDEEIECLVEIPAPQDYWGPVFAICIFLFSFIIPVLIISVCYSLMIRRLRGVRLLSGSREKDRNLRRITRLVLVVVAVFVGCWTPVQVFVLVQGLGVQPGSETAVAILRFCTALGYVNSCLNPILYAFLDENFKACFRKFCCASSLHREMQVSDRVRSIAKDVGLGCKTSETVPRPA

`CNC(=O)[C@@H](Cc1ccccc1Cl)CN1CCC2(CC1)OCCc1cc(F)sc12` [(S)-10b, (2S)-2-[(2-Chlorophenyl)methyl]-3-(2-fluorospiro[4,5-dihydrothieno[2,3-c]pyran-7,4'-piperidine]-1'-yl)-N-methyl-propanamide]: the brain uptake is ~ 280 % SUV.
The molecule `CC(C)N(C)C(=O)[C@@H](Cc1ccccc1F)CN1CCC2(CC1)OCCc1cc(F)sc12` [(S)-10a, (2S)-2-[(2-Fluorophenyl)methyl]-3-(2-fluorospiro[4,5-dihydrothieno[2,3-c]pyran-7,4'-piperidine]-1'-yl)-N-isopropyl-N-methyl-propanamide] showed a brain uptake of 453 % SUV.
In the case of `CNC(=O)[C@@H](Cc1ccccc1F)CN1CCC2(CC1)OCCc1cc(F)sc12` [(S)-10c, (2S)-2-[(2-Fluorophenyl)methyl]-3-(2-fluorospiro[4,5-dihydrothieno[2,3-c]pyran-7,4'-piperidine]-1'-yl)-N-methyl-propanamide], the brain uptake was ~ 280 % SUV.
